We go through 2 molecules from paper PMC7862291, “Full-length in meso structure and mechanism of rat kynurenine 3-monooxygenase inhibition” (Communications Biology, 2021).

In general, Kd refers to the constant that tells how readily two partners part at equilibrium. Usually koff stands for the rate constant with which the complex falls apart. Usually kon stands for the rate constant with which the complex forms. Higher therefore signals faster complex formation. As a reminder, the Kp is tissue or fluid exposure divided by exposure in the circulation.

Where two headings read alike, the source gives them in different places.

One series has as its target T1, hKMO (Homo sapiens, UniProt O15229).
T1 construct: purchased Origene
Put plainly: Surface plasmon resonance. Type of series: binding. Particulars: SPR, immobilised hKMO, single-cycle kinetics. Here is the method:
Surface plasmon resonance experiments were performed using a Biacore 8K+ (GE Healthcare) instrument. A 20-μg/mL concentration of hKMO (Origene) was immobilised on a Series S Sensor Chip CM5 (GE Healthcare) by NHS/EDC amine coupling. The Rmax was 13,500 resonance units (RU) upon binding.
Five-fold serial dilutions of 50 nM compound 3 finalised in 2% DMSO were made, and run in a buffer containing HBS-P+ (GE Healthcare), 1 mM DTT, and 2% DMSO using single-cycle kinetics.
Surface plasmon resonance data were analysed using Biacore Insight Evaluation software. All fits used a simple 1:1 Langmuir binding model showing reasonable fit and low fit χ^2 values.

Series [1] can be described thus: Pharmacokinetic (brain penetration) study in rats. Particulars: Sprague-Dawley Crl:CD(SD), rat, male SD rats, 10 mg/kg ip, 1 h after a single administration. The class given is in vivo. The procedure:
Brain penetration studies were conducted in non-fasted male SD rats [Sprague-Dawley rats Crl:CD(SD), 8 weeks of age]. Compound 1 was intraperitoneally (ip) administered at 10 mg/kg in a solution of saline containing 10% dimethylformamide, 10% propylene glycol, and 4% 1 normality (N) sodium hydrate. […] Blood and brain were collected at 1 h after a single administration. The test compound in plasma samples or brain samples was extracted by deproteination with acetonitrile, and then analysed using LC-MS/MS.

T1 sequence (O15229 whole entry): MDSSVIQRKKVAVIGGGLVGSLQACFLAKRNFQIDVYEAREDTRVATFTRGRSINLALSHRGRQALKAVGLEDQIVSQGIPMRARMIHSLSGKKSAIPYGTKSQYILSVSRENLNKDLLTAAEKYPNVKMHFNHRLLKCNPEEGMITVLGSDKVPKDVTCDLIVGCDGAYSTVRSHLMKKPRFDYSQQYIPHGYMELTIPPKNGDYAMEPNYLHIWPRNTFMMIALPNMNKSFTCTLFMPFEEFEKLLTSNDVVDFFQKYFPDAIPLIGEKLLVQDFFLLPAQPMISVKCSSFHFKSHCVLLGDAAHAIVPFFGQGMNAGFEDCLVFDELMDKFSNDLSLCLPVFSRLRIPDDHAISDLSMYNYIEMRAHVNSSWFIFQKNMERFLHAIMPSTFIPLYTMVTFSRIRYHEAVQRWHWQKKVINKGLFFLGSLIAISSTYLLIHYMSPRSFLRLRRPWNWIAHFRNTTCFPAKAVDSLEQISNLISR

For `Cc1cnn(-c2ccc(OCc3ccccc3)c(C(=O)O)c2)c1-c1ccc(Cl)c(F)c1` [Compound 3], on hKMO, binding was put at a Kd of 0.039 nM, the koff was 2.1e-05 s⁻¹ and the kon stood at 540000 M⁻¹ s⁻¹.

`Cc1cnn(-c2cccc(C(=O)O)c2)c1-c1ccccc1` [Compound 1] came in with a Kp at 1 h in series [1] (brain/plasma) of 0.029. In addition, the concentration at 1 h in series [1] (brain, read-out: Exposure in brain) was 25.4 ng/g; in series [1] (plasma, read-out: Exposure in plasma), 869 ng/mL.
